According to patent US5212167A, “Modulation of receptor-mediated ion transport” (Trustees of Boston University, priority 1991, dated 1993):
Where a name gives a salt, the structure may show the parent alone.

Tests used:
NMDA receptor = test: Whole-cell patch clamp, NMDA-induced currents in cultured chick spinal cord neurons; conditions: for enhancement of the NMDA response (percent change): 100 μM pregnenolone sulfate
Procedure: (§1) Cultures of dissociated spinal cord neurons were prepared from 7-day chick embryos as described by Wu et al. (Mol. Pharmacol. 37:597-602 (1990)). Briefly, dissociated cells were plated on collagen-coated 35-mm tissue culture dishes in Eagle's minimum essential medium supplemented with 2.4 mM glutamine, 10% (v/v) heat-inactivated horse serum, 5% (v/v) chick embryo extract, 100 units/ml penicillin, and 100 μg/ml streptomycin. Cultures were maintained in a humidified atmosphere of 5% CO2 /95% air at 37° C. Cytosine arabinoside (1 μM) was added after 36 hours to control the proliferation of non-neuronal cells. This medium was removed one day later and replaced with a similar medium supplemented with 20.5 mM glucose and 18 mM KCl, and containing 2.5% chick embryo extract. Fresh medium was added twice weekly. Cultured neurons were used in experiments 2-4 weeks after plating.
(§2) Electrophysiological experiments were carried out in 35-mm tissue culture dishes on the stage of an inverted phase-contrast microscope. Whole-cell currents were recorded by the whole-cell variant of the patch clamp technique described by Hamill et al. (Pflugers Arch. 391:85-100 (1981)). Patch electrodes were fabricated with a double pull from thin-wall borosilicate glass microcapillary pipets (Fischer) on a David Kopf vertical pipet puller (Model 700D). Electrode resistance was 5.2±0.12 M.OMEGA. (n=65) when filled with intracellular solution. The electrode solution usually contained (in mM): 10 KCl, 3 sodium gluconate, 140 potassium gluconate, 11 EGTA and 10 HEPES (pH adjusted to 7.2 with KOH). For GABA experiments, a high Cl-intracellular solution (in mM, 140 KCl, 3 NaCl, 1 MgCl2, 11 EGTA and 10 HEPES, pH adjusted to 7.2 with KOH) was used. The bath solution contained (in mM): 150 NaCl, 4 KCl, 1 CaCl2, 1 MgCl2 and 10 HEPES (pH adjusted to 7.2 with NaOH). Since NMDA-induced currents are subject to voltage-dependent block by extracellular Mg^2+, no magnesium salts were added to the bath solution. All experiments were performed at room temperature (23°-25° C.).
Recordings were made using a Yale MK V amplifier. After forming a tight seal (typically 1-10 G.OMEGA.) capacitative transients were minimized. The patch of membrane under the pipet tip was then ruptured by gentle suction to obtain the whole-cell configuration. Cells with series resistance greater than 10 M.OMEGA. were rejected. Series resistance, which initially measured 7.3± 0.14 M.OMEGA. (n=65), was compensated (>60%). Only cells with resting membrane potential more negative than -55 mV and input resistance in excess of 150 M.OMEGA. were used. All recordings were made with the cell membrane potential clamped at -70 mV. Currents were filtered at 1 kHz using an 8-pole Bessel filter and digitized (40 ms/point) using an on-line data acquisition system (pClamp, Axon Instruments).
Drug solutions were applied to single neurons by pressure ejection (15 psi) from 7-barrel pipets (Choi et al., J. Neurophysiol 45:605-620 (1981) and Chan, C. Y. and D. H. Farb, J. Neurosci. 5:2365-2373 (1985)). Pipets were pulled from Omega dot tubing to a tip diameter of about 1 μm per barrel and broken back to about 3-5 μm per barrel after filling. Seven-barrel pressure pipets were positioned approximately 50μm from the neuronal soma. Under these conditions, the drug solution in the pressure pipet rapidly and effectively replaces the solution surrounding the target neuron, with less than 10% dilution (Choi and Fischbach, J. Neurophysiol. 45:605-620 (1981)).
All drugs were obtained from Sigma, with the exception of AMPA hydrobromide (Research Biochemicals) and pregnenolone sodium sulfate (Steraloids). Stock solutions of steroids were prepared in dimethyl sulfoxide (final concentration, 0.5%, v/v).

GABA receptor = test: Whole-cell patch clamp, GABA-induced currents in cultured chick spinal cord neurons; type: cell-based
Procedure: as §1
Electrophysiological experiments were carried out in 35-mm tissue culture dishes on the stage of an inverted phase-contrast microscope. Whole-cell currents were recorded by the whole-cell variant of the patch clamp technique described by Hamill et al. (Pflugers Arch. 391:85-100 (1981)). […]
(§3) Recordings were made using a Yale MK V amplifier. […] Series resistance, which initially measured 7.3± 0.14 M.OMEGA. […]

glycine receptor = test: Whole-cell patch clamp, glycine-induced currents in cultured chick spinal cord neurons; type: cell-based; conditions: for inhibition of the glycine response: 50 μM glycine, n=6
Procedure: as §1
as §2, with “All experiments were performed at room temperature (23°-25° C.).” left out
as §3

[1] = system: non-NMDA glutamate receptor; test: Whole-cell patch clamp, kainate- or AMPA-induced currents in cultured chick spinal cord neurons; type: cell-based
Procedure: as §1
as §2, with “All experiments were performed at room temperature (23°-25° C.).” left out
as §3

NCC(=O)O [glycine, reference compound]
potentiation of the NMDA response by glycine in the presence of pregnenolone sulfate (NMDA receptor; 10 μM glycine, 100 μM pregnenolone sulfate present): still evident

CC(=O)C1CCC2C3CC=C4CC(OS(=O)(=O)O)CCC4(C)C3CCC12C (centres unmarked) [pregnenolone sulfate]
potentiation of the NMDA response in the presence of maximal glycine versus without added glycine (NMDA receptor; 10 μM glycine present): did not differ significantly
increase of response to NMDA (NMDA receptor; 30 μM NMDA, 100 μM steroid, -70 mV): approximately threefold
enhancement of the NMDA response (percent change) (NMDA receptor; 100 μM NMDA, n=4, mean ±SEM): 86±7.5%
enhancement of the NMDA response (percent change) (NMDA receptor; 1 mM NMDA, n=2, mean ±SEM): 1.3±1.3%
increase in the ionic current across the cellular membrane (NMDA receptor; appropriate concentration (summary statement)): 3 fold
EC50 (NMDA receptor; read-out: EC50 for enhancement of the NMDA response, FIG. 2 dose response): 57 µM
EC50 (GABA receptor; FIG. 2 dose response, read-out: EC50 for inhibition of the GABA response): 7 µM
effect on GABA receptor-mediated ion channel activity (in words) (GABA receptor; summary statement): slight decrease
inhibition of the glycine response (glycine receptor; 5 μM pregnenolone sulfate): 61±2%
inhibition of the glycine response (glycine receptor; 100 μM pregnenolone sulfate): 91±2%
effect on glycine receptor-mediated ion channel activity (in words) (glycine receptor; summary statement): slight decrease
effect on response elicited by AMPA ([1]; AMPA-induced current): slightly inhibited
effect on response elicited by kainate ([1]; kainate-induced current): slightly inhibited
effect on non-NMDA glutamate-induced activity (in words) ([1]; summary statement): inhibited

C[C@]12CCC(=O)C=C1CC[C@@H]1[C@@H]2[C@@H](O)C[C@@]2(C)[C@H]1CC[C@]2(O)C(=O)CO [Hydrocortisone, reference compound]
enhancement of NMDA-induced current (in words) (NMDA receptor; 100 μM steroid): failed to enhance
inhibition of the NMDA response (NMDA receptor; 100 μM steroid, n=6, mean ±SEM): 15±2.4%
